Data: patent US4997843A, “2,4-disubstituted derivatives of tetrahydrofuran useful for the treatment of PAF mediated illnesses” (J Uriach & Cia S.A., priority 1987, dated 1991)
Where two headings read alike, the source gives them in different places.

Tests used:
[1] = system: hypotension induced by PAF; experiment: Test 2: inhibition of the hypotensive effect induced by PAF in normotense rats; type: in vivo, male Sprague Dawley rats; settings: anesthetized rats, compound via femoral vein 3 min before PAF (0.5 mg/Kg, i.v.); for ED50: Rattus norvegicus, iv, read-out: IC50 (inhibition of the hypotension induced by PAF)
Experimental: TEST 2--INHIBITION OF THE HYPOTENSIVE EFFECT INDUCED BY PAF IN NORMOTENSE RATS
Male Sprague Dawley rats, of 180-220 g of weight, anesthetized with sodium pentobarbital (50 mg/Kg, i.p. 1 mL/100 g) have been used. In order to measure the average arterial pressure a polyethylene catheter was introduced into the carotid artery. The arterial pressure was recorded with the help of a transducer connected with a R611 Beckman polygraph. The tested compounds were administrated through the femoral vein 3 min. before the injection of PAF (0.5 mg/Kg, i.v.).

[2] = system: platelet aggregation induced by PAF; experiment: Test 1: inhibition of platelet aggregation induced by PAF in vitro (rabbit platelet rich plasma, Born nephelometric technique); type: cell-based, male New Zealand albino rabbits; settings: PAF C18 16 nM final, read-out: IC50 (concentration of the drug needed to inhibit the platelet aggregation in a 50%)
Experimental: TEST 1: INHIBITION OF PLATELET AGGREGATION INDUCED BY PAF
The platelet rich plasma (PRP) is prepared by blood centrifugation at 250 xg for 10 min. at 4° C. and it is diluted with platelet poor plasma (PPP) obtained by additional centrifugation at 300 xg for 10 min. The amount of platelets is adjusted to […].

[3] = Oryctolagus cuniculus, Platelet

In the case of `CCCCCCCCCCCCCCCNC(=O)OCC1COC(COC(=O)N(Cc2cccc[n+]2CC)C(C)=O)C1` (racemic) [Compound 49, (±)-cis, trans-N-ethyl-2-[N-acetyl-[[[(4-pentadecylaminocarbonyloxymethyltetrahydrofuran-2-yl)methoxy]-carbonyl]amino]methyl]pyridinium iodide], the ED50 [1] is reported as 0.033 mg/kg and the IC50 [2, 3] is reported as 0.0045 µM.

For `CCCCCCCCCCCCCCCCCNC(=O)OCC1COC(COC(=O)N(Cc2cccc[n+]2CC)C(C)=O)C1` (racemic) [Compound 53, (±)-cis, trans-N-ethyl-2-[N-acetyl-[[[(4-heptadecylaminocarbonyloxymethyltetrahydrofuran-2-yl)methoxy]carbonyl]amino]methyl]pyridinium iodide], the ED50 [1] was 0.042 mg/kg and the IC50 [2, 3] was 0.027 µM.

For `CCCCCCCCCCCCCCCCOCC1COC(COC(=O)N(Cc2cccc[n+]2CC)C(C)=O)C1` (racemic) [Compound 58, (±)-cis, trans-N-ethyl-2-[N-acetyl-[[[(4-hexadecyloxymethyltetrahydrofuran-2-yl)methoxy]carbonyl]amino]methyl]pyridinium chloride], the “IC50 (inhibition of the hypotension induced by PAF)” value [1] was 0.044 mg/Kg, i.v and the IC50 [2] was 0.009 µM.

For `CCCCCCCCCCCCCCCCCCOCC1CC(COCCCCCCC[n+]2ccsc2)CO1` (racemic) [Compound 61, (±)-cis, trans-3-[7-[(2-octadecyloxymethyltetrahydrofuran-4-yl)methoxy]heptyl]thiazolium chloride], the ED50 [1] was 2.1 mg/kg and the IC50 [2, 3] was 2 µM.

`CCCCCCCCCCCCCCCCCCOCC1CC(COC(=O)CCCCC[n+]2ccsc2)CO1` (racemic) [Compound 64, (±)-cis, trans-3-[6-[(2-octadecyloxymethyltetrahydrofuran-4-yl)methoxy]6-oxohexyl]thiazolium 4-methylbenzenesulfonate] showed an ED50 [1] of 1.1 mg/kg and an IC50 [2, 3] of 1.5 µM.

`CCCCCCCCCCCCCCCCCCOCC1CC(COC(=O)NCc2cccc[n+]2C)CO1` (racemic) [Compound 66, (±)-cis, trans-N-methyl-2-[[[[(2-octadecyloxymethyl-tetrahydrofuran-4-yl)methoxy]carbonyl]amino]methyl]pyridinium iodide] showed an ED50 [1] of 5 mg/kg and an IC50 [2, 3] of 1.6 µM.

`CCCCCCCCCCCCCCCCCCOCC1CC(COC(=O)N(Cc2cccc[n+]2C)C(C)=O)CO1` (racemic) [Compound 68, (±)-cis, trans-N-methyl-2-[N-acetyl-[[[(2-octadecyloxymethyltetrahydrofuran-4-yl)methoxy]carbonyl]amino]methyl]pyridinium iodide] gave an ED50 [1] of 0.11 mg/kg and an IC50 [2, 3] of 0.14 µM.

In the case of `CCCCCCCCCCCCCCC1COC(COCCCCCC[n+]2ccsc2)C1` (racemic) [Compound 70, (±)-cis, trans-3-[6-[(4-tetradecyltetrahydrofuran-2-yl)methoxy]hexyl]thiazolium 4-methylbenzenesulphonate], the ED50 [1] is reported as 2.2 mg/kg and the IC50 [2, 3] is reported as 2.2 µM.

Compound `CCCCCCCCCCCCCCC1COC(COCCCCCC[n+]2cccc3ccccc32)C1` (racemic) [Compound 72, (±)-cis, trans-1-[6-[(4-tetradecyltetrahydrofuran-2-yl)methoxy]hexyl]quinolinium 4-methylbenzenesulfonate] has an ED50 [1] of 3.2 mg/kg and an IC50 [2, 3] of 3.4 µM.

`CCCCCCCCCCCCCCC1COC(COCCCCCCC[n+]2ccsc2)C1` (racemic) [Compound 82, (±)-cis, trans-3-[7-[(4-tetradecyltetrahydrofuran-2-yl)methoxy]heptyl]thiazolium 4-methylbenzenesulfonate] was tested, and the ED50 [1] was 1.5 mg/kg and the IC50 [2, 3] was 1.8 µM.

For `CCCCCCCCCCCCCCC1COC(COC(=O)N(Cc2cccc[n+]2C)C(C)=O)C1` (racemic) [Compound 109, (±)-cis,trans-N-methyl-2-[N-acetyl-[[[(4-tetradecyltetrahydrofuran-4-yl]methoxy]carbonyl]amino]methyl]pyridinium iodide], the ED50 [1] was 0.39 mg/kg and the IC50 [2, 3] was 0.24 µM.

`CCCCCCCCCCCCCCCCCCC1COC(COC(=O)N(Cc2cccc[n+]2CC)C(C)=O)C1` (racemic) [Compound 113] showed an ED50 [1] of 0.2 mg/kg and an IC50 [2, 3] of 0.2 µM.
